Data reported in patent US12194080B2, “Methods for identification, assessment, prevention, and treatment of metabolic disorders using PM20D1 and N-lipidated amino acids” (Dana-Farber Cancer Institute, Inc., priority 2015, dated 2025).

How the values were obtained:
U2OS cells = experiment: Cellular oxygen consumption rate (uncoupled respiration), U2OS cells; assay type: cell-based, human; details: 50 μM, after oligomycin 1 μM
Procedure: C2C12, U2O5, and 293A cells were cultured in DMEM with 10% FBS and pen/strep. Primary inguinal (iWAT) and brown (BAT) adipocytes were obtained as follows. The stromal-vascular fraction of inguinal (iWAT) pad from 4-12 week old male mice was dissected, minced, and digested for 45 min. at 37° C. in PBS containing 10 mM CaCl2, 2.4 U/ml dispase II (Roche), and 1.5 U/ml collagenase D (Roche). The stromal-vascular fraction of brown fat (BAT) pads from newborn (P1-P14) pups was dissected, minced, and digested for 45 min at 37° C. in PBS containing 1.3 mM CaCl2, 120 mM NaCl, 5 mM KCl, 5 mM glucose, 100 mM HEPES, 4% BSA, and 1.5 mg/ml collagenase B (Roche). Digested tissue was diluted with adipocyte culture media (DMEM/F-12, GlutaMAX™ supplement, Life Technologies, with 10% FBS and pen/strep) and centrifuged (600×g for 10 min.). The pellet was resuspended in 10 ml adipocyte culture media, strained through a 40 μm filter, and plated. Differentiation was induced by application of an adipogenic cocktail containing 5 μg/ml insulin (Sigma), 5 μM dexamethasone (Sigma), 250 μM isobutylmethylxanthine (Sigma), and 1 μM rosiglitazone (Cayman) for 2 days. Two days after induction, cells were maintained in adipocyte culture media containing 5 μg/ml insulin and 1 μM rosiglitazone.
Cellular oxygen consumption rates were determined using an XF24 Extracellular Flux Analyzer (Seahorse Biosciences). Oligomycin was purchased from EMD Millipore, and FCCP and rotenone were purchased from Sigma. C2C12 or U2OS cells were seeded at 30,000 or 50,000 cells/well, respectively in an XF24 cell culture microplate (V7-PS, Seahorse Bioscience) and analyzed the following day. Primary iWAT or BAT adipocytes were seeded at 15,000 cells/well, differentiation was induced the following day as described, and the cells were analyzed on day 5. On the day of analysis, the cells were washed once with Seahorse respiration buffer (8.3 g/1 DMEM, 1.8 g/l NaCl, 1 mM pyruvate, 20 mM glucose, pen/strep), placed in 0.5 ml Seahorse respiration buffer, and incubated in a CO2-free incubator for 1 hr. Port injection solutions were prepared as follows (final concentrations in assay in parentheses): 10 μM oligomycin (1 μM final), […] amino acid (50 μM final), 2 μM FCCP (0.2 μM final), and 30 μM rotenone (3 μM final). The Seahorse program was run as follows: basal measurement, 3 cycles; inject port A (oligomycin), 3 cycles; inject port B (compounds), 8 cycles; inject port C (FCCP), 3 cycles; inject port D (rotenone), 3 cycles. Each cycle consisted of mix 4 min, wait 0 min, and measure 2 min. For data expressed as a percentage of oligomycin-treated basal, the respiration at cycle 6 was normalized to 100%, and the maximum respiration at any time point between cycles 7 and 15 inclusive was used.

C2C12 cells = experiment: Mitochondrial membrane potential by TMRM fluorescence; assay type: cell-based, mouse; details: co-treatment with oligomycin 1 μM, 20 min; C18:1-Phe 50 μM, FCCP 0.4 μM
Procedure: Mitochondrial membrane potential was measured using tetramethylrhodamine methyl ester (TMRM, Life Technologies) fluorescence. C2C12 cells were plated in 6-well plates and grown to 80-90% confluence. Cells were then washed once with PBS and switched into Seahorse respiration buffer with the indicated compounds at the indicated concentrations: TMRM (100 nM), oligomycin (1 μM), FCCP (0.4 μM), and C18:1-Phe (10 or 50 μM). After 20 min. incubation at 37° C., the media was aspirated, cells were washed once with PBS, and trypsinized. Trypsinized cells were directly resuspended in PBS (total volume 300 μl), stored on ice, and analyzed on a FACSCanto™ II (BD Biosciences) with 20,000 events per sample.

[1] = system: differentiated primary BAT cells; experiment: Cellular oxygen consumption rate (Seahorse XF24), differentiated primary BAT adipocytes; assay type: cell-based, mouse; details: 50 μM, in presence of oligomycin (1 μM)
Procedure: C2C12, U2O5, and 293A cells were cultured in DMEM with 10% FBS and pen/strep. Primary inguinal (iWAT) and brown (BAT) adipocytes were obtained as follows. The stromal-vascular fraction of inguinal (iWAT) pad from 4-12 week old male mice was dissected, minced, and digested for 45 min. at 37° C. in PBS containing 10 mM CaCl2, 2.4 U/ml dispase II (Roche), and 1.5 U/ml collagenase D (Roche). The stromal-vascular fraction of brown fat (BAT) pads from newborn (P1-P14) pups was dissected, minced, and digested for 45 min at 37° C. in PBS containing 1.3 mM CaCl2, 120 mM NaCl, 5 mM KCl, 5 mM glucose, 100 mM HEPES, 4% BSA, and 1.5 mg/ml collagenase B (Roche). […]
Cellular oxygen consumption rates were determined using an XF24 Extracellular Flux Analyzer (Seahorse Biosciences). […] C2C12 or U2OS cells were seeded at 30,000 or 50,000 cells/well, respectively in an XF24 cell culture microplate (V7-PS, Seahorse Bioscience) and analyzed the following day. Primary iWAT or BAT adipocytes were seeded at 15,000 cells/well, differentiation was induced the following day as described, and the cells were analyzed on day 5. […] For data expressed as a percentage of oligomycin-treated basal, the respiration at cycle 6 was normalized to 100%, and the maximum respiration at any time point between cycles 7 and 15 inclusive was used.

[2] = Blood levels after a single i.p. dose; assay type: in vivo; details: C57BL/6, mouse, ip, single 30 mg/kg i.p. dose, mean±SEM, n=3
Procedure: Animal experiments were performed according to procedures approved by the Beth Israel Deaconess Medical Center IACUC. Mice were maintained in 12 h light-dark cycles at 22° C. and fed a standard irradiated rodent chow diet. All experiments on wild-type mice were performed with male C57BL/6 mice purchased from Jackson Laboratories, except for the AAV experiments, which were performed with male C57BL/6 mice from Charles River. UCP1-KO (stock #017476) and 16-20 week DIO mice (stock #380050) were obtained from Jackson Laboratories. For AAV injection experiments, mice were gently warmed using a 250 W clear infrared heat lamp, immobilized, and injected via tail vein with 10^10 virus/mouse (diluted in saline) in a total volume of 100 μl/mouse. Where indicated, mice were placed on high-fat diet (60% fat, Research Diets). For cold exposure experiments, mice were group housed and placed at 4° C. for the indicated times. For the preparation of C18:1-Phe for in vivo injections, compounds were dissolved in 18:1:1 v/v/v saline:Kolliphor® EL (Sigma Aldrich):DMSO and sonicated until homogeneous. Mice were administered compounds at 5 μl/g body weight at the indicated doses. For all injection experiments, mice were mock injected with saline daily for 3 days prior to the start of the experiments. […]

[3] = system: Diet induced obese (DIO) mice; experiment: Chronic daily i.p. administration of N-acyl amino acids to DIO mice (body weight, food intake, body composition, GTT); assay type: in vivo, mouse; details: chronic treatment, C18:1-Phe 30 or 50 mg/kg/day, C20:4-Gly 15 mg/kg/day, i.p.
Procedure: (§1) Animal experiments were performed according to procedures approved by the Beth Israel Deaconess Medical Center IACUC. Mice were maintained in 12 h light-dark cycles at 22° C. and fed a standard irradiated rodent chow diet. All experiments on wild-type mice were performed with male C57BL/6 mice purchased from Jackson Laboratories, except for the AAV experiments, which were performed with male C57BL/6 mice from Charles River. UCP1-KO (stock #017476) and 16-20 week DIO mice (stock #380050) were obtained from Jackson Laboratories. For AAV injection experiments, mice were gently warmed using a 250 W clear infrared heat lamp, immobilized, and injected via tail vein with 10^10 virus/mouse (diluted in saline) in a total volume of 100 μl/mouse. Where indicated, mice were placed on high-fat diet (60% fat, Research Diets). For cold exposure experiments, mice were group housed and placed at 4° C. for the indicated times. For the preparation of C18:1-Phe for in vivo injections, compounds were dissolved in 18:1:1 v/v/v saline:Kolliphor® EL (Sigma Aldrich):DMSO and sonicated until homogeneous. Mice were administered compounds at 5 μl/g body weight at the indicated doses. For all injection experiments, mice were mock injected with saline daily for 3 days prior to the start of the experiments. For glucose tolerance tests (GTTs), mice received their final dose of compound the day prior to the assay and were then fasted overnight. Glucose was administered at 1.5 g/kg.
(§2) Energy expenditure, O2 consumption, CO2 production, respiratory exchange ratio, total locomotor activity, and food intake measurements were made with a 16-cage Columbus Instruments Oxymax Comprehensive Lab Animal Monitoring System (CLAMS) at ambient room temperature (21-23° C.). Mice were acclimated for one day in metabolic cages prior to data collection. Whole-body composition was assessed with an EchoMRI™ 3-in-1 on conscious mice.

[4] = system: Diet induced obese (DIO) mice; experiment: Indirect calorimetry (CLAMS) of high fat diet/DIO mice treated with N-acyl amino acids; assay type: in vivo, mouse
Procedure: as §1, §2

[5] = daily i.p.: C18:1-Leu 25, C18:1-Phe 30, C20:4-Gly 15 mg/kg/day

CCCCCCCC/C=C\CCCCCCCC(=O)N[C@@H](Cc1ccccc1)C(=O)O [C18:1-Phe, Oleoyl-L-phenylalanine]
uncoupling activity (uncoupled respiration) (U2OS cells): possessed uncoupling activity | decrease of TMRM fluorescence (C2C12 cells): ~45% | maximal OCR versus DMSO at the same time point [1]: 156% | maximal OCR versus oligomycin-treated basal respiration [1]: 198% | concentration at 2 h ([2]; 2 h post-injection): 3000 ± 300 nM | concentration at 6 h ([2]; 6 h post-injection): 400 ± 100 nM | food intake [3]: reduced food intake | movement ([4]; 16-week high fat diet mice, 10 mg/kg daily, days 5 and 6): similar | VO2 [4, 5]: significantly augmented | movement [4, 5]: no effects
